Read-outs that look alike come from different tables or passages of the source.
What was measured:
MEK1 = target: T1, MEK1 (Homo sapiens, UniProt Q02750); assay: MEK1 kinase cascade assay (ADP-Glo), inhibition of MEK1 kinase activity; assay type: biochemical; settings: 25 nM BRAF, 6.25 nM MEK1, 0.5 μM ERK, 1 mM ATP; 20 min preincubation, 1 hr at 25° C.; read-out: BRAF ADP Glo kinase assay V3 (IC50)
T1 construct: purchased SignalChem M02-14H
Text: (§1) Protein expression and purification: BRAF (445-723) with N-term His-tag and C-term StrepII tag was expressed using the Expi293 system (ThermoFisher) and purified using Strep-Tactin® XT-Superflow (IBA) chromatography. ERK1 (full-length) with N-term His-tag was expressed in Rosetta DE3 cells (Millipore) and purified using HisTrap HP (Cytiva) and Superdex 200 (Cytiva) column chromatography. Full-length MEK1 for TR-FRET assays with N-term His-tag was expressed in BL21DE3 cells (ThermoFisher) and purified using HisTrap HP (Cytiva) and Superdex 200 (Cytiva) column chromatography.
Efficacy of exemplary compounds in inhibition of MEK1 kinase activity: The effect of compound MEK1 inhibition was evaluated using an ADP detection system for kinases, such as the ADP-Glo assay (Promega). The MEK1 kinase cascade assay consisted of 9 μL reaction volumes in 384-well white, opaque Optiplates (PerkinElmer). Compounds were prepared from DMSO stocks in assay buffer (10 mM HEPES pH 7.5, 5 mM MgCl2, 2 mM CHAPS, and 1 mM DTT) and preincubated with 25 nM BRAF for 20 mins at 25° C. prior to addition of 6.25 nM MEK1/0.5 μM ERK/1 mM ATP premix to initiate the kinase reaction. Both BRAF and ERK1 were produced in-house, and MEK1 was purchased from SignalChem (M02-14H). DMSO was kept constant at a final concentration of 1%. After a 1 hr incubation at 25° C., conversion of ATP to ADP was detected using ADP-Glo™ reagents according to the manufacturer's protocol. Luminescence was measured using a CLARIOstar microplate reader (BMG). Percent (%) Inhibition was calculated by normalizing to DMSO control (max) and 1 μM Trametinib (min). % inhibition as a function of compound concentration from 2 replicate wells was fit with a 4-parameter logistic curve equation using GraphPad Prism or CDD Vault to derive IC50 values.
(§2) In this table, for the BRAF ADP Glo kinase assay, “A” indicates IC50 of less than 5 nM; “B” indicates IC50 of between 5 nM to 50 nM; and “C” indicates IC50 of between 50 nM to 500 nM. “D” indicates IC50 of greater than 500 nM. For the BRAF-MEK TR-FRET assay, “A” indicates EC50 of less than 50 nM; “B” indicates EC50 of between 50 nM to 200 nM; and “C” indicates EC50 of between 200 nM to 1 μM. “D′” indicates EC50 of greater than 1 μM. For the AlphaLisa P-ERK assay, “A” indicates IC50 of less than 1 nM; “B” indicates IC50 of between 1 nM to 10 nM; and “C” indicates IC50 of between 10 nM to 100 nM. “D” indicates IC50 of greater than 100 nM. For the cell viability assay, “A” indicates IC50 of less than 1 nM; “B” indicates IC50 of between 1 nM to 10 nM; and “C” indicates IC50 of between 10 nM to 100 nM. “D” indicates IC50 of greater than 100 nM.

BRAF-MEK1 = assay: BRAF-MEK TR-FRET assay, stabilization of MEK1 and BRAF interaction; assay type: binding; settings: 4 nM BRAF, 10 nM MEK, 100 μM ATP, 1 hr at 25° C., read-out: BRAF-MEK TR-FRET Assay (EC50, fold stabilization)
Text: as §1
Efficacy of exemplary compounds in stabilization of MEK1 and BRAF interaction: Compound stabilization of BRAF-MEK interaction was evaluated using TR-FRET (Time Resolved Fluorescence Energy Transfer). The FRET assay consisted of His-tagged MEK1 (produced in-house), GST-tagged BRAF (SignalChem, B08-11G), Anti His-Tb Cryptate donor, and Anti GST-XL665 acceptor fluorophores (PerkinElmer) to generate FRET signal upon BRAF-MEK1 binding. Compounds were prepared from DMSO stocks in assay buffer (50 mM Tris pH 7.5, 150 mM NaCl, 1 mM DTT, 0.05% Tween-20, 5 mM MgCl2, and 100 μM ATP) and incubated with 4 nM BRAF and 10 nM MEK for 1 hr at 25° C. 1 ng Anti His-Tb Cryptate/20 ng Anti GST-XL665 premix was then added and incubated for 1 hr at 25° C. TR-FRET was measured using Cytation5 microplate reader (Agilent) using Ex/Em=340/620 nm and Ex/Em=340/665 nm to determine the FRET ratio. Fold stabilization was calculated as FRET signal of treated well/DMSO control. Fold stabilization as a function of compound concentration from 2 replicate wells was fit with a 4-parameter logistic curve equation using GraphPad Prism or CDD Vault to derive EC50 values.
as §2

T1 sequence (Q02750 whole entry): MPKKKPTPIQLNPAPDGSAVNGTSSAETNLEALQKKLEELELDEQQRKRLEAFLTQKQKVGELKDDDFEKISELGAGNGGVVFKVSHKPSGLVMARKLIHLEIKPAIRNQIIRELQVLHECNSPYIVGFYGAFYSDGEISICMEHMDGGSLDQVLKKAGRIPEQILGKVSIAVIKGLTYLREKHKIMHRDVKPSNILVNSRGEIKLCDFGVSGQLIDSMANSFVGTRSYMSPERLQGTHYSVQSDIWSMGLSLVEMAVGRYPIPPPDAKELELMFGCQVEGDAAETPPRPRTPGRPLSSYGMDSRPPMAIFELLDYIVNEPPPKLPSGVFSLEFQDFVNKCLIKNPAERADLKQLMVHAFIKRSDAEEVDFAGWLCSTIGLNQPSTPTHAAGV
T1 sequence (P15056 445-723 partner limits assumed): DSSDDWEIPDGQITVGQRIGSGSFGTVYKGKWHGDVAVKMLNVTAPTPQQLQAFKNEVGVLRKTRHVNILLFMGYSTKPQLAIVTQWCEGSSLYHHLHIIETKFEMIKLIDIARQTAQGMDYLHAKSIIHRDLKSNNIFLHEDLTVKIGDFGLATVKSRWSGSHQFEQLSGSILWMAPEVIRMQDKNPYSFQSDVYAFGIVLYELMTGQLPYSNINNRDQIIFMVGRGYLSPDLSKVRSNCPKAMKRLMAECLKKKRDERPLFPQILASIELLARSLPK

SMILES	IC50 (MEK1) [nM]	EC50 (BRAF-MEK1) [nM]	EC50 (BRAF-MEK1; 60 min) [nM]
CN(C)C(=O)Oc1ccc2c(c1)OC(=O)N(Cc1cccc(NS(=O)(=O)N3CC4(COC4)C3)c1F)C2 [Compound 109, 3-(2-fluoro-3-(2-oxa-6-azaspiro[3.3]heptane-6-sulfonamido)benzyl)-2-oxo-3,4-dihydro-2H-benzo[e][1,3]oxazin-7-yl dimethylcarbamate]	5 to 50	200 to 1000	–
CNS(=O)(=O)Nc1nccc(CN2C(=O)Oc3cc(Oc4nccnn4)cnc3[C@@H]2C)c1F (stereo in doubt) [Compound 198, 3-{[3-fluoro-2-(methylaminosulfonylamino)-4-pyridyl]methyl}-4-methyl-7-(1,2,4-triazin-3-yloxy)-3,4-dihydro-2H-1-oxa-3,5-diazanaphthalen-2-one]	5 to 50	–	< 50
CNS(=O)(=O)Nc1cccc(CN2C(=O)Oc3cc(OC(=O)N(C)C)ccc3[C@@H]2C)c1F [Compound 152, 3-(2-fluoro-3-((N-methylsulfamoyl)amino)benzyl)-4-methyl-2-oxo-3,4-dihydro-2H-benzo[e][1,3]oxazin-7-yl dimethylcarbamate]	5 to 50	200 to 1000	–
CNS(=O)(=O)Nc1nccc(CN2C(=O)Oc3cc(Oc4ncco4)cnc3[C@@H]2C)c1F (stereo in doubt) [Compound 191, 3-{[3-fluoro-2-(methylaminosulfonylamino)-4-pyridyl]methyl}-4-methyl-7-(1,3-oxazol-2-yloxy)-3,4-dihydro-2H-1-oxa-3,5-diazanaphthalen-2-one]	50 to 500	50 to 200	–
CNS(=O)(=O)Nc1nccc(CN2C(=O)Oc3cc(Oc4cccnn4)ccc3C2(C)C)c1F [Compound 32, 3-({3-fluoro-2-[(methylsulfamoyl)amino]pyridin-4-yl}methyl)-4,4-dimethyl-7-(pyridazin-3-yloxy)-3,4-dihydro-2H-1,3-benzoxazin-2-one]	5 to 50	200 to 1000	–
CNS(=O)(=O)Nc1nccc(CN2C(=O)Oc3c(ccc(Oc4cccnn4)c3F)C23CCC3)c1F [Compound 174, 8-fluoro-3-{[3-fluoro-2-(methylaminosulfonylamino)-4-pyridyl]methyl}-7-(3-pyridazinyloxy)-2H,3H-spiro[1,3-benzoxazine-4,1′-cyclobutan]-2-one]	5 to 50	< 50	–
CNS(=O)(=O)Nc1cccc(CN2Cc3cc(Cl)c(OC(=O)C(C)C)cc3OC2=O)c1F [Compound 129, 6-chloro-3-(2-fluoro-3-((N-methylsulfamoyl)amino)benzyl)-2-oxo-3,4-dihydro-2H-benzo[e][1,3]oxazin-7-yl isobutyrate]	–	200 to 1000	–
CNS(=O)(=O)Nc1cccc(CN2Cc3ccc(OC(=O)C4CC4)cc3OC2=O)c1F [Compound 147, 3-(2-fluoro-3-((N-methylsulfamoyl)amino)benzyl)-2-oxo-3,4-dihydro-2H-benzo[e][1,3]oxazin-7-yl cyclopropanecarboxylate]	–	50 to 200	–
CNS(=O)(=O)Nc1nccc(CN2C(=O)Oc3cc(Oc4nccnn4)cnc3[C@@H]2C)c1F (stereo in doubt) [Compound 199, 3-{[3-fluoro-2-(methylaminosulfonylamino)-4-pyridyl]methyl}-4-methyl-7-(1,2,4-triazin-3-yloxy)-3,4-dihydro-2H-1-oxa-3,5-diazanaphthalen-2-one]	–	–	50 to 200
CNS(=O)(=O)Nc1cccc(CN2Cc3cc(Cl)c(OC(=O)C4CC4)cc3OC2=O)c1F [Compound 130, 6-chloro-3-(2-fluoro-3-((N-methylsulfamoyl)amino)benzyl)-2-oxo-3,4-dihydro-2H-benzo[e][1,3]oxazin-7-yl cyclopropanecarboxylate]	–	50 to 200	–
CNS(=O)(=O)Nc1nccc(CN2C(=O)Oc3cc(Oc4cccnn4)cnc3[C@H]2C)c1F (stereo in doubt) [Compound 193, 3-{[3-fluoro-2-(methylaminosulfonylamino)-4 pyridyl]methyl}-4-methyl-7-(3-pyridazinyloxy)-3,4-dihydro-2H-1-oxa-3,5 diazanaphthalen-2-one]	–	–	< 50
CNS(=O)(=O)Nc1nccc(CN2C(=O)Oc3cc(Oc4ncccn4)ccc3C23CCC3)c1F [Compound 160, 3-{[3-fluoro-2-(methylaminosulfonylamino)-4-pyridyl]methyl}-7-(2-pyrimidinyloxy)-2H,3H-spiro[1,3-benzoxazine-4,1′-cyclobutan]-2-one]	–	200 to 1000	–
O=C1Oc2cc(Oc3cccnn3)ccc2C2(CCC2)N1Cc1ccnc(NS(=O)(=O)C2CC2)c1F [Compound 163, (cyclopropylsulfonyl)[3-fluoro-4-({2-oxo-7-(3-pyridazinyloxy)-2H,3H-spiro[1,3-benzoxazine-4,1′-cyclobutan]-3-yl}methyl)-2-pyridyl]amine]	–	200 to 1000	–
CNS(=O)(=O)Nc1nccc(CN2C(=O)Oc3cc(Oc4nc(C)co4)ccc3C23CCC3)c1F [Compound 182, 3-{[3-fluoro-2-(methylaminosulfonylamino)-4-pyridyl]methyl}-7-(4-methyl-1,3-oxazol-2-yloxy)-2H,3H-spiro[1,3-benzoxazine-4,1′-cyclobutan]-2-one]	5 to 50	–	–
CNS(=O)(=O)Nc1nccc(CN2C(=O)Oc3cc(Oc4ncco4)cnc3[C@@H]2C)c1F (stereo in doubt) [Compound 190, 3-{[3-fluoro-2-(methylaminosulfonylamino)-4-pyridyl]methyl}-4-methyl-7-(1,3-oxazol-2-yloxy)-3,4-dihydro-2H-1-oxa-3,5-diazanaphthalen-2-one]	5 to 50	–	–
CNS(=O)(=O)Nc1cccc(CN2C(=O)Oc3cc(Oc4ncco4)cnc3[C@H]2C)c1F (stereo in doubt) [Compound 189, 3-{[2-fluoro-3-(methylaminosulfonylamino)phenyl]methyl}-4-methyl-7-(1,3-oxazol-2-yloxy)-3,4-dihydro-2H-1-oxa-3,5-diazanaphthalen-2-one]	50 to 500	–	–
CNS(=O)(=O)Nc1cccc(CN2Cc3ccc(OC4COC4)cc3OC2=O)c1F [Compound 98, 3-{[2-fluoro-3-(methylaminosulfonylamino)phenyl]methyl}-7-(3-oxetanyloxy)-3,4-dihydro-2H-1,3-benzoxazin-2-one]	> 500	–	–
CNS(=O)(=O)Nc1cccc(CN2C(=O)Oc3cc(Oc4ncco4)cc(F)c3[C@H]2C)c1F (single isomer, unassigned) [Compound 87, (R)-5-fluoro-3-({2-fluoro-3-(methylsulfamoyl)amino]phenyl}methyl)-4-methyl-7-(1,3-oxazol-2-yloxy)-3,4-dihydro-2H-1,3-benzoxazin-2-one or (S)-5-fluoro-3-({2-fluoro-3-(methylsulfamoyl)amino]phenyl}methyl)-4-methyl-7-(1,3-oxazol-2-yloxy)-3,4-dihydro-2H-1,3-benzoxazin-2-one]	50 to 500	–	–
